According to US6376491B1, “Bicyclic compounds” (Basilea Pharmaceutica AG, priority 1998, dated 2002):
Values after ≈ are worked out from the molar mass of the structure shown.

Assays:
[1] = tested on: Cryptococcus neoformans (Cr. neoformans) cells (strain MTU13001); experiment: In vitro antifungal activity, broth micro-dilution, turbidity at 600 nm; assay type: cell-based; settings: YNBPB medium, 35° C., 24 hours, OD600; for IC50: Cryptococcus neoformans, read-out: Inhibition against in vitro cell growth, Cr. neoformans (MTU13001) IC50
Method: In vitro antifungal activity of the bicyclic compounds was determined using the Cryptococcus neoformans (Cr. neoformans) cells (strain MTU13001) according to the broth micro-dilution procedure (National Committee for Clinical Laboratory Standard (1992). Document M27-P). 10^4 cells in […] of YNBPB medium (YNB (Difco), 1% (w/v) dextrose (Wako), 0.25% K2HPO4 (Wako)) containing various concentrations of compounds were dispensed in 96-well plates and incubated at 35° C. for 24 hours. The turbidity of the cell suspension was measured using a Microplate leader (WL320, Bio-Tek Instrument) at 600 nm. Antifungal activity of each compound was indicated as 50% inhibition concentration (IC50) values that was determined by calculation the minimum concentration of the compound required for the 50% reduction of the turbidity (OD600) of cells compared to untreated control cells.

[2] = Acute toxicity (LD50) by intravenous administration in mice; settings: mouse, in vivo
From the text: The acute toxicity (LD50) of the representative bicycle compound (Example 42) of the present invention was examined by intravenous administration in mice.

Compound	IC50 [1]	Inhibition against in vitro cell growth, Cr. neoformans (MTU13001) IC50 [1]	LD50 [2]
Cc1c(COc2ccc(F)c(F)c2F)oc2cccc(OCCCNCc3cccnc3)c12 [Example 21, {3-[2-(2,3,4-Trifluorophenoxymethyl)-3-methyl-benzofuran-4-yloxy]-propyl}-pyridin-3-ylmethyl-amine]	5.8 mg/L (≈ 12.7 µM)		
Cc1c(COc2ccc(F)cc2F)oc2cccc(OCCCNCc3cccnc3)c12 [Example 12, {3-[2-(2,4-Difluorophenoxymethyl)-3-methyl-benzofuran-4-yloxy]-propyl}-pyridin-3-ylmethyl-amine]	4.4 mg/L (≈ 10 µM)		
Cc1c(C(=O)NCCc2ccccc2)oc2cccc(OCCCNC3CCN(Cc4ccccc4)CC3)c12 [Example 112, 4-[3-(1-Benzyl-piperidin-4-ylamino)-propoxy]-3-methyl-benzofuran-2-carboxylic Acid Phenethyl-amide]	3.1 mg/L (≈ 5.9 µM)		
Cc1c(C2=NC(C(=O)N3CCN(C)CC3)C(CC3CCCCC3)O2)oc2cccc(OCCCNCc3cccnc3)c12 (racemic) [Example 88, dl-[5-Cyclohexylmethyl-2-(3-methyl-4-{3-[(pyridin-3-ylmethyl)-amino]-propoxy}-benzofuran-2-yl)-trans-4,5-dihydro-oxazol-4-yl]-(4-methyl-piperazin-1-yl)-methanone]		5.3 mg/L	
CCOCc1cc2cc(OCc3oc4cccc(OCCCNCc5cccnc5)c4c3C)ccc2o1 [Example 42, [3-[2-(2-Ethoxymethyl-benzofuran-5-yloxymethyl)-3-methyl-benzofuran-4-yloxy]-propyl]-pyridin-3-ylmethyl-amine]	2.5 mg/L (≈ 4.99 µM)		> 50 mg/kg
CCOCc1oc2cccc(OCCCNCc3cccnc3)c2c1C [Example 52, [3-(2-Ethoxymethyl-3-methyl-benzofuran-4-yloxy)-propyl]-pyridin-3-ylmethyl-amine]	2.6 mg/L (≈ 7.34 µM)		
Cc1c(COc2ccc3oc(C(C)(C)O)cc3c2)oc2cccc(OCCCNCc3cccnc3)c12 [Example 44-2, 2-[5-(3-methyl-4-{3-[(pyridin-3-ylmethyl)-amino]-propoxy}-benzofuran-2-ylmethoxy)-benzofuran-2-yl]-propan-2-ol]	6.1 mg/L (≈ 12.2 µM)		
CCOC(=O)c1oc2cccc(OCCCNC3CCN(Cc4ccccc4)CC3)c2c1C [Example 100, 4-(3-(1-Benzyl-piperidin-4-ylamino)-propoxy)-3-methyl-benzofuran-2-carboxylic Acid Ethyl Ester]	2.1 mg/L (≈ 4.66 µM)		
Cc1c(CSCCc2ccccc2)oc2cccc(OCCCNC(C)C)c12 [Example 55, Isopropyl-[3-(3-methyl-2-phenethylsulfanylmethyl-benzofuran-4-yloxy)-propyl]-amine]	1.8 mg/L (≈ 4.53 µM)		
Cc1c(COc2cccnc2)oc2cccc(OCCCNCc3cccnc3)c12 [Example 31, {3-[3-Methyl-2-(pyridin-3-yloxymethyl)-benzofuran-4-yloxy]-propyl}-pyridin-3-ylmethyl-amine]	19 mg/L (≈ 47.1 µM)		
Cc1c(COc2ccc(C#N)cc2)oc2cccc(OCCCNCc3cccnc3)c12 [Example 32, 4-(3-Methyl-4-{3-[(pyridin-3-ylmethyl)-amino]-propoxy}-benzofuran-2-ylmethoxy)-benzonitrile]	69 mg/L (≈ 161 µM)		
CCOC(=O)c1ccc(NC(=O)c2oc3cccc(OCCCNC(C)(C)C)c3c2C)cc1 [Example 64, 4-[[4-(3-tert-Butylamino-propoxy)-3-methyl-benzofuran-2-carbonyl]-amino]-benzoic Acid Ethyl Ester]	2.1 mg/L (≈ 4.64 µM)		
CCOC(=O)c1oc2cccc(OCCCNCc3ccc(N(C)C)cc3)c2c1C [Example 99, 4-(3-(4-Dimethylamino-benzylamino)-propoxy)-3-methyl-benzofuran-2-carboxylic Acid Ethyl Ester]	1.9 mg/L (≈ 4.63 µM)		
Cc1c(C(=O)Nc2ccc(N3CCOCC3)cc2)oc2cccc(OCCCNCc3cccnc3)c12 [Example 69, 3-Methyl-4-{3-[(pyridin-3-ylmethyl)-amino]-propoxy}-benzofuran-2-carboxylic Acid (4-morpholin-4-yl-phenyl)-amide]	57 mg/L (≈ 114 µM)		
